In patent US11109611B2, “Compositions and methods that modulate digestibility in a companion animal” (Societe des Produits Nestle SA, priority 2016, dated 2021):

Tests used:
Format in all cases: in vivo, canine
Details in all cases: plasma after overnight fasting in fifth week of feeding, correlations with P value < 0.01
Canines [1] = experiment: Metabolite correlations with dry matter digestibility (plasma metabolomics)
Description: (§1) 83 Canines were all fed Diet A for 5 weeks, followed by a 1 week transition period and then 15 were fed Diet B for 5 weeks as shown in the Table 1 below. Plasma samples were taken after overnight fasting using EDTA vacutainer tubes during the fifth week of feeding of each diet. After centrifugation, plasma was aliquoted into cryovials and frozen at −80° C.
(§2) Metabolomic analysis was carried out using the following methods by Metabolon Inc. Samples were extracted and split into equal parts for analysis on GC/MS and LC/MS/MS platforms. Proprietary software was used to match ions to an in-house library of standards for metabolite identification and for metabolite quantitation by peak area integration by Metabolon Inc. Mass and retention index are provided in the following tables such that each metabolite can be uniquely identified and individually distinguished.
(§3) At the time of analysis, samples were thawed and extracts prepared to remove protein, dislodge small molecules bound to protein or physically trapped in the precipitated protein matrix, and recover a wide range of chemically diverse metabolites. A separate aliquot of each experimental plasma sample was taken then pooled for the creation of “Client Matrix” (CMTRX) samples. These CMTRX samples were injected throughout the platform run and served as technical replicates, allowing variability in the quantitation of all consistently detected biochemicals to be determined and overall process variability and platform performance to be monitored. Extracts of all experimental and CMTRX samples were split for analysis on the GC/MS and LC/MS/MS platforms.
(§4) The CMTRX technical replicate samples were treated independently throughout the process as if they were client study samples. All process samples (CMTRX and Grob test mixtures of organic components used to assess GC column performance, process blanks, etc.) were spaced evenly among the injections for each day and all client samples were randomly distributed throughout each day's run. Data were collected over multiple platform run days and thus ‘block normalized’ by calculating the median values for each run-day block for each individual compound. […] Missing values (if any) were assumed to be below the level of detection for that biochemical with the instrumentation used and were imputed with the observed minimum for that particular biochemical.
(§5) A number of internal standards were added to each experimental and process standard sample just prior to injection into the mass spectrometers.
Metabolite correlations with dry matter digestibility were determined based on plasma metabolomics (Table 6). […] Feeding different levels of these compounds (diet B vs diet A; Table 7), and noting changes in dry matter digestibility (Table 8), served as a validation model. The metabolite compositions of the two different diets were determined to identify relative levels of specific compounds.

Canines [2] = experiment: Metabolite correlations with fiber digestibility (plasma metabolomics)
Description: as §1, §2, §3, §4
A number of internal standards were added to each experimental and process standard sample just prior to injection into the mass spectrometers. A measure of the platform variability (7%) was determined by calculating the median relative standard deviation (RSD) for these internal standards. Because these standards are added to the samples immediately prior to injection into the instrument, this value reflects instrument variation. In addition, the median relative standard deviation (RSD) for the biochemicals that were consistently measured in the CMTRX represents the total variability within the process for the actual experimental samples and the variability in quantitation of the endogenous metabolites within these samples (12%).
589 total metabolites were detected in plasma. […]
Metabolite correlations with fiber digestibility were determined based on plasma metabolomics (Table 10). […] The metabolite compositions of the two different diets were determined in order to identify relative levels of specific compounds.

Canines [3] = experiment: Metabolite correlations with organic matter digestibility (plasma metabolomics)
Description: as §1, §2, §3, §4, §5
Metabolite correlations with organic matter digestibility were determined based on plasma metabolomics (Table 2). […] The metabolite compositions of the two different diets were determined to identify relative levels of specific compounds.

## 1-palmitoylplasmenylethanolamine
Canines [1]
  Correlation with dry matter digestibility: −0.4127
Canines [2]
  Correlation with fiber digestibility: −0.3651
Canines [3]
  Correlation with organic matter digestibility: −0.4149

## OC[C@H]1OC[C@H](O)[C@@H](O)[C@@H]1O [1,5-anhydroglucitol (1,5-AG)]
Canines [3]
  Correlation with organic matter digestibility: −0.2973

## CCCCCCCCCCCCCCCCC(=O)OC[C@@H](O)COP(=O)(O)OCCN [1-heptadecanoylglycerophosphoethanolamine]
Canines [1]
  Correlation with dry matter digestibility: −0.4635
Canines [2]
  Correlation with fiber digestibility: −0.4181
Canines [3]
  Correlation with organic matter digestibility: −0.4779

## CCCCC/C=C\C/C=C\CCCCCCCC(=O)OCC(O)COP(=O)(O)OCCN (centres unmarked) [1-linoleoylglycerophosphoethanolamine]
Canines [3]
  Correlation with organic matter digestibility: −0.2924

## CCCCCCCC/C=C\CCCCCCCC(=O)OCC(O)COP(=O)(O)OCCN (centres unmarked) [1-oleoylglycerophosphoethanolamine]
Canines [1]
  Correlation with dry matter digestibility: −0.4501
Canines [3]
  Correlation with organic matter digestibility: −0.4678

## CCCCCCCCCCCCCCCC(=O)OCC(O)CO (centres unmarked) [1-palmitoylglycerol (1-monopalmitin)]
Canines [2]
  Correlation with fiber digestibility: −0.3548

## CCC(N)C(=O)O (centres unmarked) [2-aminobutyrate]
Canines [1]
  Correlation with dry matter digestibility: 0.4535
Canines [3]
  Correlation with organic matter digestibility: 0.4586

## CC(C)(O)C(=O)O [2-hydroxyisobutyrate]
Canines [1]
  Correlation with dry matter digestibility: 0.2975
Canines [3]
  Correlation with organic matter digestibility: 0.3269

## CCCCC/C=C\C/C=C\CCCCCCCC(=O)O[C@H](CO)COP(=O)(O)OCCN [2-linoleoylglycerophosphoethanolamine]
Canines [1]
  Correlation with dry matter digestibility: −0.3262
Canines [3]
  Correlation with organic matter digestibility: −0.3461

## CCCCCCCC/C=C\CCCCCCCC(=O)OC(CO)COP(=O)(O)OCCN (centres unmarked) [2-oleoylglycerophosphoethanolamine]
Canines [1]
  Correlation with dry matter digestibility: −0.3648
Canines [3]
  Correlation with organic matter digestibility: −0.3761

## CC(O)CC(=O)O (centres unmarked) [3-hydroxybutyrate (BHBA)]
Canines [1]
  Correlation with dry matter digestibility: 0.3858
Canines [3]
  Correlation with organic matter digestibility: 0.4249

## CC(C)C(=O)C(=O)O [3-methyl-2-oxobutyrate]
Canines [1]
  Correlation with dry matter digestibility: 0.3102
Canines [3]
  Correlation with organic matter digestibility: 0.3345

## CCCCC/C=C\C/C=C\C/C=C\C/C=C\CCCCCC(=O)O [adrenate (22:4n6)]
Canines [1]
  Correlation with dry matter digestibility: 0.366
Canines [3]
  Correlation with organic matter digestibility: 0.4225

## Cc1c(C)c2c(c(C)c1O)CC[C@@](C)(CCC[C@H](C)CCC[C@H](C)CCCC(C)C)O2 [alpha-tocopherol]
Canines [2]
  Correlation with fiber digestibility: −0.3263

## OC[C@@H](O)C(O)[C@H](O)CO [arabitol]
Canines [1]
  Correlation with dry matter digestibility: −0.369
Canines [3]
  Correlation with organic matter digestibility: −0.3609

## CCCCC/C=C\C/C=C\C/C=C\C/C=C\CCCC(=O)O [arachidonate (20:4n6)]
Canines [1]
  Correlation with dry matter digestibility: 0.4779
Canines [3]
  Correlation with organic matter digestibility: 0.5395

## CC(C)(O)CC(=O)O [beta-hydroxyisovalerate]
Canines [1]
  Correlation with dry matter digestibility: 0.2994
Canines [3]
  Correlation with organic matter digestibility: 0.3342

## N[C@@H](CCC(=O)N[C@@H](CSSC[C@H](N)C(=O)O)C(=O)NCC(=O)O)C(=O)O [cysteine-glutathione disulfide]
Canines [1]
  Correlation with dry matter digestibility: −0.5458
Canines [3]
  Correlation with organic matter digestibility: −0.5693

## CCCCC/C=C\C/C=C\CCCCCCCCCC(=O)O [dihomo-linoleate (20:2n6)]
Canines [1]
  Correlation with dry matter digestibility: 0.4696
Canines [3]
  Correlation with organic matter digestibility: 0.5242

## CC/C=C\C/C=C\C/C=C\C/C=C\C/C=C\CCCCCC(=O)O [docosapentaenoate (n3 DPA; 22:5n3)]
Canines [1]
  Correlation with dry matter digestibility: 0.3814
Canines [3]
  Correlation with organic matter digestibility: 0.4157

## CCCCC/C=C\C/C=C\C/C=C\C/C=C\C/C=C\CCC(=O)O [docosapentaenoate (n6 DPA; 22:5n6)]
Canines [1]
  Correlation with dry matter digestibility: 0.4484
Canines [3]
  Correlation with organic matter digestibility: 0.4971

## O=C(O)C(O)CO (centres unmarked) [glycerate]
Canines [1]
  Correlation with dry matter digestibility: 0.3423
Canines [3]
  Correlation with organic matter digestibility: 0.3968

## O=C(O)CO [glycolate (hydroxyacetate)]
Canines [1]
  Correlation with dry matter digestibility: 0.3124
Canines [3]
  Correlation with organic matter digestibility: 0.3449

## CCCCC/C=C\C/C=C\CCCCCCCC(=O)O [linoleate (18:2n6)]
Canines [3]
  Correlation with organic matter digestibility: 0.287

## CCCCCCCC(=O)O[C@H](CC(=O)O)C[N+](C)(C)C [octanoylcarnitine]
Canines [1]
  Correlation with dry matter digestibility: 0.3264
Canines [3]
  Correlation with organic matter digestibility: 0.3604

## CCCCCCCCCCCCCCCC(=O)O [palmitate (16:0)]
Canines [1]
  Correlation with dry matter digestibility: 0.2862
Canines [3]
  Correlation with organic matter digestibility: 0.3027

## CCCCCC/C=C\CCCCCCCC(=O)O [palmitoleate (16:1n7)]
Canines [1]
  Correlation with dry matter digestibility: 0.3089
Canines [3]
  Correlation with organic matter digestibility: 0.3097

## O=C(O)C1CCCCN1 (centres unmarked) [pipecolate]
Canines [1]
  Correlation with dry matter digestibility: 0.3661
Canines [3]
  Correlation with organic matter digestibility: 0.415

## OC[C@@H](O)[C@@H](O)[C@@H](O)CO [ribitol]
Canines [2]
  Correlation with fiber digestibility: −0.3122

## C[N+]1(C)CCC[C@H]1C(=O)[O-] [stachydrine]
Canines [1]
  Correlation with dry matter digestibility: −0.3121
Canines [3]
  Correlation with organic matter digestibility: −0.3927

## CCCCCCCCCCCCCCCCCC(=O)O [stearate (18:0)]
Canines [3]
  Correlation with organic matter digestibility: 0.2845

## C[n+]1cccc(C(=O)[O-])c1 [trigonelline (N′-methylnicotinate)]
Canines [1]
  Correlation with dry matter digestibility: −0.5297
Canines [3]
  Correlation with organic matter digestibility: −0.5801

## arabonate
Canines [1]
  Correlation with dry matter digestibility: −0.3013
Canines [3]
  Correlation with organic matter digestibility: −0.3117

## campesterol
Canines [1]
  Correlation with dry matter digestibility: −0.3101
Canines [3]
  Correlation with organic matter digestibility: −0.3283

## dihomo-linolenate (20:3n3 or n6)
Canines [1]
  Correlation with dry matter digestibility: 0.3649
Canines [3]
  Correlation with organic matter digestibility: 0.4357

## eicosenoate (20:1n9 or 11)
Canines [1]
  Correlation with dry matter digestibility: 0.3674
Canines [3]
  Correlation with organic matter digestibility: 0.4051

## linolenate [alpha or gamma; (18:3n3 or 6)]
Canines [1]
  Correlation with dry matter digestibility: 0.372
Canines [3]
  Correlation with organic matter digestibility: 0.3932

## threonate
Canines [1]
  Correlation with dry matter digestibility: 0.3492
Canines [3]
  Correlation with organic matter digestibility: 0.3788
